Data: ChEMBL document CHEMBL4507275, “Data for DCP probe BI-2545” (2021)

Key:
[1] = target: GABA-A receptor; anion channel (Rattus norvegicus) (UniProt O09028+P15431+P18506+P18508+P19969+P20236+P23574+P23576+P28471+P28473+P30191+P62813+P63079+P63138+Q91ZM7+Q9ES14); details: Compound concentration 10.0 uM
[2] = target: Mitogen-activated protein kinase kinase kinase 7 (Homo sapiens) (UniProt O43318); details: Compound concentration 1000.0 nM
[3] = target: Atypical kinase COQ8A, mitochondrial (Homo sapiens) (UniProt Q8NI60); details: Compound concentration 1000.0 nM
[4] = target: Serine/threonine-protein kinase WNK2 (Homo sapiens) (UniProt Q9Y3S1); details: Compound concentration 1000.0 nM
[5] = target: Receptor tyrosine-protein kinase erbB-3 (Homo sapiens) (UniProt P21860); details: Compound concentration 1000.0 nM
[6] = target: Serine/threonine-protein kinase 33 (Homo sapiens) (UniProt Q9BYT3); details: Compound concentration 1000.0 nM
[7] = target: Receptor-type tyrosine-protein kinase FLT3 (Homo sapiens) (UniProt P36888); details: Compound concentration 1000.0 nM
[8] = target: Phosphatidylinositol 3-kinase catalytic subunit type 3 (Homo sapiens) (UniProt Q8NEB9); details: Compound concentration 1000.0 nM
[9] = target: Serine/threonine-protein kinase pim-1 (Homo sapiens) (UniProt P11309); details: Compound concentration 1000.0 nM
[10] = target: Dual specificity mitogen-activated protein kinase kinase 2 (Homo sapiens) (UniProt P36507); details: Compound concentration 1000.0 nM
[11] = target: Phosphatidylinositol 4-kinase beta (Homo sapiens) (UniProt Q9UBF8); details: Compound concentration 1000.0 nM
[12] = target: SRSF protein kinase 2 (Homo sapiens) (UniProt P78362); details: Compound concentration 1000.0 nM
[13] = target: SRSF protein kinase 1 (Homo sapiens) (UniProt Q96SB4); details: Compound concentration 1000.0 nM
[14] = target: Cyclin-dependent kinase 4 (Homo sapiens) (UniProt P11802); details: Compound concentration 1000.0 nM
[15] = target: LIM domain kinase 2 (Homo sapiens) (UniProt P53671); details: Compound concentration 1000.0 nM
[16] = target: NUAK family SNF1-like kinase 1 (Homo sapiens) (UniProt O60285); details: Compound concentration 1000.0 nM
[17] = target: Platelet-derived growth factor receptor alpha (Homo sapiens) (UniProt P16234); details: Compound concentration 1000.0 nM
[18] = target: Serine/threonine-protein kinase haspin (Homo sapiens) (UniProt Q8TF76); details: Compound concentration 1000.0 nM
[19] = target: D(4) dopamine receptor (Homo sapiens) (UniProt P21917); details: Compound concentration 10.0 uM
[20] = target: Tyrosine-protein kinase JAK3 (Homo sapiens) (UniProt P52333); details: Compound concentration 1000.0 nM
[21] = target: T1, 5-hydroxytryptamine receptor 3A (Homo sapiens) (UniProt P46098); details: Compound concentration 10.0 uM
T1 sequence (whole entry): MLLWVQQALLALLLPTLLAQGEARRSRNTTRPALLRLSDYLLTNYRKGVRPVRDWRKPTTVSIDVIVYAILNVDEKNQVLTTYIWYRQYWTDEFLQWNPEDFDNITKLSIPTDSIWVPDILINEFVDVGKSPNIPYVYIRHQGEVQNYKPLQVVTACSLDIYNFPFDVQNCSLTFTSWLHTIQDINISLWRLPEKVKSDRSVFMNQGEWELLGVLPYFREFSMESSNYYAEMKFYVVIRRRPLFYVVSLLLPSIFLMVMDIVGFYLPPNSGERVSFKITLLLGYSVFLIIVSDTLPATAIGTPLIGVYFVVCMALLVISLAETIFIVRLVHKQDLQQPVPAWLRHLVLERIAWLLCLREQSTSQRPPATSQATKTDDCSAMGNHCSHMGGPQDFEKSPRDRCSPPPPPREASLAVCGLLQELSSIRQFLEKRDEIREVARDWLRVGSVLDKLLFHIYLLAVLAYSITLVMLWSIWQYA

[22] = target: Calcium/calmodulin-dependent protein kinase type II subunit alpha (Homo sapiens) (UniProt Q9UQM7); details: Compound concentration 1000.0 nM
[23] = target: Dual specificity protein kinase CLK4 (Homo sapiens) (UniProt Q9HAZ1); details: Compound concentration 1000.0 nM
[24] = target: Alpha-1B adrenergic receptor (Homo sapiens) (UniProt P35368); details: Compound concentration 10.0 uM
[25] = target: Phosphatidylinositol 4-phosphate 5-kinase type-1 gamma (Homo sapiens) (UniProt O60331); details: Compound concentration 1000.0 nM
[26] = target: Serine/threonine-protein kinase BRSK2 (Homo sapiens) (UniProt Q8IWQ3); details: Compound concentration 1000.0 nM
[27] = target: Casein kinase I isoform alpha-like (Homo sapiens) (UniProt Q8N752); details: Compound concentration 1000.0 nM
[28] = target: Cyclin-dependent kinase-like 2 (Homo sapiens) (UniProt Q92772); details: Compound concentration 1000.0 nM
[29] = target: 5-hydroxytryptamine receptor 1D (Homo sapiens) (UniProt P28221); details: Compound concentration 10.0 uM
[30] = target: Tyrosine-protein kinase ABL2 (Homo sapiens) (UniProt P42684); details: Compound concentration 1000.0 nM
[31] = test system: Tyrosine-protein kinase ABL1 (Homo sapiens), P00519 [E255K]; details: Compound concentration 1000.0 nM
[32] = target: Serine/threonine-protein kinase Chk2 (Homo sapiens) (UniProt O96017); details: Compound concentration 1000.0 nM
[33] = target: Ribosomal protein S6 kinase alpha-2 (Homo sapiens) (UniProt Q15349); details: Compound concentration 1000.0 nM
[34] = target: Mitogen-activated protein kinase kinase kinase 9 (Homo sapiens) (UniProt P80192); details: Compound concentration 1000.0 nM
[35] = target: Ephrin type-A receptor 6 (Homo sapiens) (UniProt Q9UF33); details: Compound concentration 1000.0 nM
[36] = target: Serine/threonine-protein kinase D1 (Homo sapiens) (UniProt Q15139); details: Compound concentration 1000.0 nM
[37] = target: Casein kinase I isoform delta (Homo sapiens) (UniProt P48730); details: Compound concentration 1000.0 nM
[38] = target: Mitogen-activated protein kinase kinase kinase kinase 1 (Homo sapiens) (UniProt Q92918); details: Compound concentration 1000.0 nM

Chain of Alpha-1B adrenergic receptor (Homo sapiens) (P35368 whole entry): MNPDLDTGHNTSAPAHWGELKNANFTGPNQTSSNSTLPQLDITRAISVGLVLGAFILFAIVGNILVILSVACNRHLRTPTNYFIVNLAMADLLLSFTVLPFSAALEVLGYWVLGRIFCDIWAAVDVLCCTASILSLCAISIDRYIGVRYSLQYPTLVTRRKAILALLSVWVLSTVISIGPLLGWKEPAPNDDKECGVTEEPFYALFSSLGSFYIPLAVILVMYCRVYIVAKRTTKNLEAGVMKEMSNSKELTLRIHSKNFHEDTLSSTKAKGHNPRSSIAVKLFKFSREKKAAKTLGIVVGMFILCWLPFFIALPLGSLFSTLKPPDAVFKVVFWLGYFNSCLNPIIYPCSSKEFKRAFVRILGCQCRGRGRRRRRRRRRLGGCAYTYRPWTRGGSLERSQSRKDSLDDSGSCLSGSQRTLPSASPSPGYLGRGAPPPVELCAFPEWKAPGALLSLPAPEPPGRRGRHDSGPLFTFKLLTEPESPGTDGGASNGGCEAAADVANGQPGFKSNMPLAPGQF
Chain of Phosphatidylinositol 4-phosphate 5-kinase type-1 gamma (Homo sapiens) (O60331 whole entry): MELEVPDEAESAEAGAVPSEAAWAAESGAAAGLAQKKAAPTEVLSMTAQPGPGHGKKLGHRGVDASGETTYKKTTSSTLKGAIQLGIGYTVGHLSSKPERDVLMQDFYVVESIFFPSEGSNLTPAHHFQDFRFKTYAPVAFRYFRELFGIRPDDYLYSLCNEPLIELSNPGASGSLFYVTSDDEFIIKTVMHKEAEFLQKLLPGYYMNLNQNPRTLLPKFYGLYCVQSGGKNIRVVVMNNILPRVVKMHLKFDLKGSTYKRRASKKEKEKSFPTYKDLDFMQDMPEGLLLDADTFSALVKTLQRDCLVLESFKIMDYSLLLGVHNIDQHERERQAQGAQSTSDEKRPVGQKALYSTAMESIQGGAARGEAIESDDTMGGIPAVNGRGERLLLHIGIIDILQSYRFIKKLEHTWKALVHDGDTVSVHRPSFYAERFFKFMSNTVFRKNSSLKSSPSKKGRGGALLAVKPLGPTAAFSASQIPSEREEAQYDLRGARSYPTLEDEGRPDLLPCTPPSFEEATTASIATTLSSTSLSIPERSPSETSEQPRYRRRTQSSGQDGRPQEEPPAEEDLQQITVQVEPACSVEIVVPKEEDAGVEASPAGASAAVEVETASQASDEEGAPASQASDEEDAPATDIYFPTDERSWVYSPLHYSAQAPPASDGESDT
Chain of Dual specificity protein kinase CLK4 (Homo sapiens) (Q9HAZ1 whole entry, looked up): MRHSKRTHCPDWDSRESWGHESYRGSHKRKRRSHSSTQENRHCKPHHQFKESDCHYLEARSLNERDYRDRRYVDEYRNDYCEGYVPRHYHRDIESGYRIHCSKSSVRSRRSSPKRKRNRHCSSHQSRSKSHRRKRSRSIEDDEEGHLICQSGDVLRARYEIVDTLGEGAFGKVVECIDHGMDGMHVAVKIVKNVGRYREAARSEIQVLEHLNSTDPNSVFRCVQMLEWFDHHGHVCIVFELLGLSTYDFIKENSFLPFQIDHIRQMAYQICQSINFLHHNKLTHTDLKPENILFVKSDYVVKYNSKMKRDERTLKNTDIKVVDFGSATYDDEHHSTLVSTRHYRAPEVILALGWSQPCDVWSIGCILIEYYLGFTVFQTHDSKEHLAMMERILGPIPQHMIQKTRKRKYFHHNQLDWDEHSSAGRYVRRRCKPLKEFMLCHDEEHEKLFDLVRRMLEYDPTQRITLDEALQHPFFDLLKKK
Chain of Calcium/calmodulin-dependent protein kinase type II subunit alpha (Homo sapiens) (Q9UQM7 whole entry): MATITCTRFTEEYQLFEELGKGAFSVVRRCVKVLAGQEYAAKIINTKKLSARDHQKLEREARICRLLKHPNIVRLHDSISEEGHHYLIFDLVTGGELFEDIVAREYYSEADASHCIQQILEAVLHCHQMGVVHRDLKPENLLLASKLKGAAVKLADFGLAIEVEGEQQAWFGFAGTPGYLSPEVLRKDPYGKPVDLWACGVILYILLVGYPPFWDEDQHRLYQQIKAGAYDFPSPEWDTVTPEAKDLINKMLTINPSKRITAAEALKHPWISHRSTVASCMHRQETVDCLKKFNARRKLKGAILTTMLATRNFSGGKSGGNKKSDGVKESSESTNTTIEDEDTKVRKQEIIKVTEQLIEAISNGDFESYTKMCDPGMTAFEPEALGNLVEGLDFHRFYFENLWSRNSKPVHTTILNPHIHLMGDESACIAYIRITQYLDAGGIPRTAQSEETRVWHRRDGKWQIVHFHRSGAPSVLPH
Chain of Serine/threonine-protein kinase Chk2 (Homo sapiens) (O96017 whole entry): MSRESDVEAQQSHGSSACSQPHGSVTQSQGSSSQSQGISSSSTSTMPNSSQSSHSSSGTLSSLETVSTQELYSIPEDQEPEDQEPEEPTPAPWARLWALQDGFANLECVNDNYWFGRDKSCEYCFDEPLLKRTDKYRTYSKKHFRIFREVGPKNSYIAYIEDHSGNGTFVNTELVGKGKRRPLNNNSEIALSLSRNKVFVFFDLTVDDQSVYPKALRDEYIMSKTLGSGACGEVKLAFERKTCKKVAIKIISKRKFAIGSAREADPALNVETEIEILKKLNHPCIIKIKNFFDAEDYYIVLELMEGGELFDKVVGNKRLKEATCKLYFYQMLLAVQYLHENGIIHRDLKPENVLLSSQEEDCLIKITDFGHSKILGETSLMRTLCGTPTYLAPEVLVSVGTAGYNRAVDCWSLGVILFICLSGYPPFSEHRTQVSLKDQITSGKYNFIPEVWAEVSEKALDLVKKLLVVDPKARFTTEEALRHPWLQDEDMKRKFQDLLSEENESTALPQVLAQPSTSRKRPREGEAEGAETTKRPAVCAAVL
Chain of Ephrin type-A receptor 6 (Homo sapiens) (Q9UF33 whole entry): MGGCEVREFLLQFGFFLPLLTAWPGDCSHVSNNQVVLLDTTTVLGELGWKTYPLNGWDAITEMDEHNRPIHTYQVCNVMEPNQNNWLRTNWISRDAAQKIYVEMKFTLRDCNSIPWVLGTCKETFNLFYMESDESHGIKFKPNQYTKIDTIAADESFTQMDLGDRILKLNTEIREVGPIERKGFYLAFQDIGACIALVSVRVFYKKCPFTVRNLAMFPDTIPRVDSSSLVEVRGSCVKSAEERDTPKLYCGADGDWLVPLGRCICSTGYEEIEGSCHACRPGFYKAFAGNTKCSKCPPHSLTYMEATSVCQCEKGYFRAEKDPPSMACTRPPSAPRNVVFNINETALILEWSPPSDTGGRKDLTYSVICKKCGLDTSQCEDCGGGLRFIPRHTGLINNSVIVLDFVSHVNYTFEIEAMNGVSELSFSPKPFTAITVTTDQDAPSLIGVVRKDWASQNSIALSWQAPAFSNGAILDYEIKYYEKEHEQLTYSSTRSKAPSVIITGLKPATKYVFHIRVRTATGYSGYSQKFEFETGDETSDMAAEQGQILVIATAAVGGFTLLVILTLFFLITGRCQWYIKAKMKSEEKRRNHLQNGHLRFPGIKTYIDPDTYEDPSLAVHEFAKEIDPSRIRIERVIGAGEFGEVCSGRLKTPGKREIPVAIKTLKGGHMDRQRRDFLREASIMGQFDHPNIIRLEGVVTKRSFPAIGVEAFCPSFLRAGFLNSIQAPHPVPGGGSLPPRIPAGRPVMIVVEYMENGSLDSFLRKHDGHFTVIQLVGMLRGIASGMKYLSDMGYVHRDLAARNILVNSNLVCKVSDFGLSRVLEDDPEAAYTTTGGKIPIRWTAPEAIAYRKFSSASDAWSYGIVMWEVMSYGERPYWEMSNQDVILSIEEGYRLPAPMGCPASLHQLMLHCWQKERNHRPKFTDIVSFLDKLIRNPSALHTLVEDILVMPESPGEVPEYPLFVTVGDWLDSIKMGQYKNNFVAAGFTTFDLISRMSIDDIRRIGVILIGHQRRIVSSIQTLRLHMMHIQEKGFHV
Chain of Tyrosine-protein kinase ABL1 (Homo sapiens), P00519 [E255K] (P00519 whole entry E255K): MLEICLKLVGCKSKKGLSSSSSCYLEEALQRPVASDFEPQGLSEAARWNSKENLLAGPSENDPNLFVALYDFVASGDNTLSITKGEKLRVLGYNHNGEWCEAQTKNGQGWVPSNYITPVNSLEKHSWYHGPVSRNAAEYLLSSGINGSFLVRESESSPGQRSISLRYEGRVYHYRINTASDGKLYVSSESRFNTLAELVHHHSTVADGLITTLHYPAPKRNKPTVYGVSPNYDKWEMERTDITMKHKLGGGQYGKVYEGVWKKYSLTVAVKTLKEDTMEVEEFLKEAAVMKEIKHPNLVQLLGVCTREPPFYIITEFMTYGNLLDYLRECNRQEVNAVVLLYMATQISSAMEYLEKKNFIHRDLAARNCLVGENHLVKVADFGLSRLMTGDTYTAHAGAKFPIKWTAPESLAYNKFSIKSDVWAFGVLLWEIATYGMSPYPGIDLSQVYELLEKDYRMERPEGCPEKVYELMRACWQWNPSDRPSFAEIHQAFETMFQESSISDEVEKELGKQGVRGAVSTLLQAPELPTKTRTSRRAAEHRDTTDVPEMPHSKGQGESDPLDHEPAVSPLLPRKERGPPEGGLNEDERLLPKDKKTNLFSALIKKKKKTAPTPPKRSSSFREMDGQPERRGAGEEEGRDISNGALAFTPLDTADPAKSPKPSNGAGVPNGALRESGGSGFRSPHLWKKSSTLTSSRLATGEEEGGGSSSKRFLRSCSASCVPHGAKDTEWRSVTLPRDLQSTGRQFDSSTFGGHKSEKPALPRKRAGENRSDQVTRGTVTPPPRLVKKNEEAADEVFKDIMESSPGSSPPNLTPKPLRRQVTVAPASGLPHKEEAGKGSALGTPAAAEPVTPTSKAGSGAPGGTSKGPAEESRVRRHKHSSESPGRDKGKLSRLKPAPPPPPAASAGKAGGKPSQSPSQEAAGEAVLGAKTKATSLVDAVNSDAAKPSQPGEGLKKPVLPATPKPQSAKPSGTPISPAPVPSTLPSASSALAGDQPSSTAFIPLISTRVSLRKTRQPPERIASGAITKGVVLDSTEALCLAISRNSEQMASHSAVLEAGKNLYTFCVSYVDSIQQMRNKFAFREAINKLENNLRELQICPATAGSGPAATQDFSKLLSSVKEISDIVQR

O=C(NC[C@@H]1[C@H]2CN(C(=O)OCc3cc(C(F)(F)F)cc(C(F)(F)F)c3)C[C@@H]12)c1ccc2[nH]nnc2c1 [BI 2545]
inactive: inhibition [1] -4.02% | residual activity [2] 94% | residual activity [3] 100% | residual activity [4] 84% | residual activity [5] 96% | residual activity [6] 84% | residual activity [7] 91% | residual activity [8] 72% | residual activity [9] 98% | residual activity [10] 84% | residual activity [11] 100% | residual activity [12] 100% | residual activity [13] 81% | residual activity [14] 97% | residual activity [15] 83% | residual activity [16] 87% | residual activity [17] 97% | residual activity [18] 84% | inhibition [19] 6.75% | residual activity [20] 69% | inhibition [21] 8.82% | residual activity [22] 91% | residual activity [23] 98% | inhibition [24] 33.4% | residual activity [25] 98% | residual activity [26] 96% | residual activity [27] 86% | residual activity [28] 95% | inhibition [29] 43.2% | residual activity [30] 98% | residual activity [31] 92% | residual activity [32] 86% | residual activity [33] 100% | residual activity [34] 100% | residual activity [35] 69% | residual activity [36] 100% | residual activity [37] 100% | residual activity [38] 83%

Cc1nccc(COC(=O)N2C[C@@H]3[C@@H](CNC(=O)c4ccc5[nH]nnc5c4)[C@@H]3C2)n1 [BI 3017]
inactive: inhibition [1] 14.2% | residual activity [2] 75% | residual activity [3] 84% | residual activity [4] 79% | residual activity [5] 59% | residual activity [6] 93% | residual activity [7] 93% | residual activity [8] 94% | residual activity [9] 96% | residual activity [10] 84% | residual activity [11] 97% | residual activity [12] 77% | residual activity [13] 80% | residual activity [14] 78% | residual activity [15] 92% | residual activity [16] 82% | residual activity [17] 80% | residual activity [18] 91% | inhibition [19] -0.15% | residual activity [20] 96% | inhibition [21] 16.4% | residual activity [22] 65% | residual activity [23] 97% | inhibition [24] 30.2% | residual activity [25] 93% | residual activity [26] 86% | residual activity [27] 100% | residual activity [28] 95% | inhibition [29] 23% | residual activity [30] 90% | residual activity [31] 89% | residual activity [32] 100% | residual activity [33] 100% | residual activity [34] 89% | residual activity [35] 98% | residual activity [36] 100% | residual activity [37] 97% | residual activity [38] 100%
